Like-named read-outs stand apart in the source and are kept apart here.
How the values were obtained:
[1] = assay type: physicochemical; details: water
Description: To a 5 ml aqueous solution containing 1000 mg of maltosyl-β-cyclodextrin (hereinafter abbreviated G2βCyD) was added 250 mg of 6-O-(N-chloroacetylcarbamoyl) fumagillol (hereinafter abbreviated TNP-470), followed by stirring at 25° C. for 8 hours to obtain a solution. The undissolved portion of TNP-470 was filtered out, and the filtrate was placed in a vial and lyophilized in accordance with a conventional method to yield a powder. To the entire amount of the powder thus obtained, 5 ml of water was added to yield a uniform aqueous solution. Separately, in accordance with the conventional method, 110 mg of G2βCyD was dissolved in 5 ml of water; 250 mg of TNP-470 was added to this solution, followed by stirring at 25° C. for 8 hours. Then, the solution was filtered. The above uniform solution and the filtered solution were assayed for TNP-470 by high performance liquid chromatography (HPLC). Also, the saturation solubility of TNP-470 alone was determined by HPLC.
(§1) Column: ODS, YMC-Pack A-312 (Yamamura Chemical Laboratories)
(§2) Mobil phase: water-acetonitrile (1:1 v/v)
(§3) Detector: Ultra violet detector (wavelength: 210 nm)

[2] = Storage stability at 40° C., TNP-470 quantified by HPLC (Example 6); assay type: physicochemical; details: powder, 730 h
Description: as §1, §2, §3
To a 5 ml aqueous solution containing 726 mg of maltosyl-β-cyclodextrin was added 100 mg of TNP-470, followed by stirring at 25° C. for 180 minutes to yield a solution. This aqueous solution was filtered, and 5 ml of the filtrate was placed in a vial and lyophilized to yield a powder. The stability of this powder and that of TNP-470 alone were compared after storage at 40° C. for i month. TNP-470 was quantified by HPLC.

[3] = assay type: physicochemical; details: water; remark: listed apart in the source
Description: as §1, §2, §3
To a 5 ml aqueous solution containing 500 mg of glucosyl-β-cyclodextrin (hereinafter abbreviated G1[CyD) was added 250 mg of TNP-470, followed by stirring at 25° C. for 8 hours to obtain a solution. The resulting aqueous solution was filtered and lyophilized in accordance with the standard method to yield a powder. To the entire amount of the powder thus obtained, 5 ml of water was added to yield a uniform aqueous solution. Separately, in accordance With the conventional method, 100 mg of G1βCyD was dissolved in 5 ml of water; 250 mg of TNP-470 was added to this solution, followed by stirring at 25° C. for 8 hours. Then, the solution was filtered. The above uniform solution and the filtered solution were assayed for TNP-470 by HPLC method as described in Comparative Example 1. Also, the saturation solubility of TNP-470 alone was determined by HPLC.

CO[C@@H]1[C@H](OC(=O)NC(=O)CCl)CC[C@]2(CO2)[C@H]1[C@@]1(C)O[C@@H]1CC=C(C)C [TNP-470, 6-O-(N-chloroacetylcarbamoyl) fumagillol]
Comparison of Solubility (TNP-470) [1]: 1900 µg/mL
Stability, Percent residence (TNP-470) [2]: 68%
Comparison of Solubility (TNP-470) [3]: 1900 µg/mL

From US5536623A, “Method of producing highly water-soluble cyclodextrin complex” (Takeda Chemical Industries, Ltd., priority 1992, dated 1996)
